Source: the SangsterLogP compilation

Assay: method code SF-HPLC, from PMID: 2608704
Conditions: pH 1.0

Row | Compound | logD
1 | O=C(O)CCSC1=NS(=O)(=O)c2ccc(C(F)(F)F)cc2N1 | 1.96
2 | O=C(O)CSC1=NS(=O)(=O)c2cc(Br)ccc2N1 | 0.92
3 | O=C(O)CCSC1=NS(=O)(=O)c2cc(Br)cc(Br)c2N1 | 2.04
4 | O=C(O)CCSC1=NS(=O)(=O)c2cc(Cl)c(Cl)cc2N1 | 1.81
5 | O=C(O)CCC1=NS(=O)(=O)c2cc(Br)cc(Br)c2N1 | 1.35
6 | O=C(O)CCC1=NS(=O)(=O)c2cc(Cl)cc(Cl)c2N1 | 1.04
7 | O=C(O)CSC1=NS(=O)(=O)c2cc(Cl)cc(Cl)c2N1 | 1.09
8 | O=C(O)CCSC1=NS(=O)(=O)c2cc(Cl)ccc2N1 | 1.43
9 | O=C(O)CCSC1=NS(=O)(=O)c2cc(Br)ccc2N1 | 1.77
10 | O=C(O)CCCC1=NS(=O)(=O)c2cc(Cl)cc(Cl)c2N1 | 1.22
11 | COc1ccc2c(c1)NC(SCCC(=O)O)=NS2(=O)=O | 0.96
12 | O=C(O)CCSC1=NS(=O)(=O)c2ccc(Cl)cc2N1 | 1.6
13 | O=C(O)CSC1=NS(=O)(=O)c2cc(Cl)c(Cl)cc2N1 | 1.1
14 | O=C(O)CCC1=NS(=O)(=O)c2cc(Cl)c(Cl)cc2N1 | 1.5
15 | Cc1ccc2c(c1)NC(SCCC(=O)O)=NS2(=O)=O | 1.16
16 | COc1ccc2c(c1)NC(SCC(=O)O)=NS2(=O)=O | 0.37
17 | O=C(O)CSC1=NS(=O)(=O)c2cc(Cl)ccc2N1 | 0.72
18 | O=C(O)CCCC1=NS(=O)(=O)c2cc(Br)cc(Br)c2N1 | 1.51
19 | O=C(O)CCSC1=NS(=O)(=O)c2ccccc2N1 | 0.66
20 | O=C(O)CSC1=NS(=O)(=O)c2ccccc2N1 | 0.18
21 | Cc1ccc2c(c1)NC(SCC(=O)O)=NS2(=O)=O | 0.7
22 | O=C(O)CSC1=NS(=O)(=O)c2cc(Br)cc(Br)c2N1 | 1.16
23 | O=C(O)CSC1=NS(=O)(=O)c2ccc(C(F)(F)F)cc2N1 | 1.62
24 | O=C(O)CSC1=NS(=O)(=O)c2ccc(Cl)cc2N1 | 0.82
